Reference: US4378358A, “Benzothiazinopyrazoles having pharmacological activity” (Mediolanum Farmaceutici s.r.l., priority 1980, dated 1983)
Where two headings read alike, the source gives them in different places.

Columns and labels:
in vivo [1] = conditions: mouse, po
carrageenin paw edema = test: Antiinflammatory activity according to Winter et al., carrageenin paw edema, modified; format: in vivo, rat
Procedure: Antiinflammatory activity according to WINTER et al., Proc. Soc. Exp. Biol. Med.; 111, 544; 1962.
The test was modified in that the injection of carrageenin and the administration of the compound by gastric gavage were carried out simultaneously and the paw edema was measured at the plethysmograph after 4 hours.
Animals: 6 female rats for each group, average body weight: 150g

phenylquinone writhes = test: Analgesic activity according to Hendershot et al., phenylquinone writhes, modified; format: in vivo, mouse
Procedure: Analgesic activity according to HENDERSHOT et al., Jour. Pharm.
The test was modified by numbering the writhes only along the time interval from 5 to 15 minutes since the injection of phenylquinone. The injection was made 2 hours after the oral administration of the compound to be tested.
Animals: 8 female mice for each group, average body weight: 25g

in vivo [2] = conditions: rat, in vivo, po, 200 mg/kg/day; read-out: % of dead animals
Source text: (§1) Five days subacute toxicity in rats per os
(§2) Animals: 5 female rats for each group, average body weight: 150g.

rats [3] = test: in vivo; conditions: 5 days, rats, per os
Source text: as §1, §2

rats [4] = format: in vivo, rat; conditions: for Average number of lesions per animal / Gastrolesive effect, relative potency to naproxen / Gastrolesive effect, relative potency to piroxicam: single oral administration, male rats
Procedure: The test was modified by increasing the fast period to 70 hours and giving the total dose of substance in one single oral administration.
Animals: 10 male rats for each group, average body weight: 150g.

in vivo [5] = format: in vivo; conditions: rat, in vivo, po; read-out: LD 50 (Litchfield and Wilcoxon)
Rat = test: in vivo; format: in vivo
pyresis = test: Antipyretic activity according to Burn et al.; format: in vivo, rat; conditions: for Reduction of the pyresis at hour 4: female rats
Source text: Animals: 6 female rats for each group, average body weight 200 g.

Mouse = conditions: per os
[6] = Rattus norvegicus, po, 4 h, 50 mg/kg per os, female rats, read-out: % inhibition of the edema after 4 hours
[7] = Rattus norvegicus, po, 4 h, 100 mg/kg per os, female rats, read-out: % inhibition of the edema after 4 hours
[8] = Mus musculus, 50 mg/kg oral, 2 h before phenylquinone, 5-15 min, female mice
[9] = Mus musculus, 100 mg/kg oral, 2 h before phenylquinone, 5-15 min, female mice
[10] = 100 mg/kg (maximum tested dose)
[11] = 50 mg/g (so in the source) per os
[12] = 100 mg/g (so in the source) per os

| Structure (SMILES) | LD50 (in vivo [1]) [mg/kg] | Antiinflammatory relative potency to naproxen (carrageenin paw edema; 50 mg/kg per os) | Antiinflammatory relative potency to piroxicam (carrageenin paw edema; 50 mg/kg per os) | Antiinflammatory relative potency to naproxen (carrageenin paw edema; 100 mg/kg per os) | Antiinflammatory relative potency to piroxicam (carrageenin paw edema; 100 mg/kg per os) | inhibition in vivo at 50 mg/kg (carrageenin paw edema; [6]) [%] | inhibition in vivo at 100 mg/kg (carrageenin paw edema; [7]) [%] | Analgesic relative potency to naproxen (phenylquinone writhes; 50 mg/kg oral) | Analgesic relative potency to piroxicam (phenylquinone writhes; 50 mg/kg oral) | Analgesic relative potency to naproxen (phenylquinone writhes; 100 mg/kg oral) | Analgesic relative potency to piroxicam (phenylquinone writhes; 100 mg/kg oral) | inhibition in vivo at 50 mg/kg (phenylquinone writhes; [8]) [%] | inhibition in vivo at 100 mg/kg (phenylquinone writhes; [9]) [%] | mortality at 120 h (in vivo [2]) [%] | Subacute toxicity, relative ratio to naproxen (rats [3]) | Subacute toxicity, relative ratio to piroxicam (rats [3]) | Average number of lesions per animal (rats [4]; [10]) | Gastrolesive effect, relative potency to naproxen (rats [4]) | Gastrolesive effect, relative potency to piroxicam (rats [4]) | LD50 (in vivo [5]) [mg/kg] | also measured |
| --- | --- | --- | --- | --- | --- | --- | --- | --- | --- | --- | --- | --- | --- | --- | --- | --- | --- | --- | --- | --- | --- |
| CCN(CC)CCNC(=O)c1nn(-c2ccccc2)c2c1N(C)S(=O)(=O)c1ccccc1-2 [Compound I-1, 2-methyl-5-phenyl-1,2-benzothiazino[3,4-d]pyrazole-3-yl-carboxylic acid, 2-(N,N-diethylamino)ethylamide,S,S-dioxide] | 2850 | 0.5 | 0.2 | 0.8 | 0.4 | 10 | 16 | 1.3 | 0.9 | 2.2 | 1.6 | 43 | 72 | 0 | 4 | 10 | 0 | > 20 | 100 | 2700 | LD 50, relative ratio to piroxicam (Rat; in vivo): 10.0; Antipyretic relative potency to naproxen (pyresis; [11]): 0.8; Antipyretic relative potency to piroxicam (pyresis; [11]): 1.0; Reduction of the pyresis at hour 4 (pyresis; [11]): 0.86 °C; Antipyretic relative potency to naproxen (pyresis; [12]): 1.3; Antipyretic relative potency to piroxicam (pyresis; [12]): 1.6; Reduction of the pyresis at hour 4 (pyresis; [12]): 1.44 °C; LD 50, relative ratio to naproxen (Mouse): 2.3; LD 50, relative ratio to piroxicam (Mouse): 7.9 |
| CN(C)CCCNC(=O)c1nn(-c2ccccc2)c2c1N(C)S(=O)(=O)c1ccccc1-2 [Compound I-2] | 1380 | 0.6 | 0.3 | 0.8 | 0.4 | 12 | 17 | 2.1 | 1.5 | 2.8 | 2.0 | 68 | 92 | 0 | 4 | 10 | 0 | > 20 | 100 | 2400 | LD 50, relative ratio to naproxen (Rat; per os): 4.4; LD 50, relative ratio to piroxicam (Rat; per os): 8.9; Antipyretic relative potency to naproxen (pyresis; [11]): 0.5; Antipyretic relative potency to piroxicam (pyresis; [11]): 0.7; Reduction of the pyresis at hour 4 (pyresis; [11]): 0.58 °C; Antipyretic relative potency to naproxen (pyresis; [12]): 0.8; Antipyretic relative potency to piroxicam (pyresis; [12]): 1.0; Reduction of the pyresis at hour 4 (pyresis; [12]): 0.89 °C; LD 50, relative ratio to naproxen (Mouse): 1.1; LD 50, relative ratio to piroxicam (Mouse): 3.8 |
| COc1ccc2cc([C@H](C)C(=O)O)ccc2c1 [Naproxen, naproxen, reference compound] | – | – | – | – | – | – | – | – | – | – | – | – | – | – | – | – | – | – | – | – | inhibition in vivo at 30 mg/kg (carrageenin paw edema; Rattus norvegicus, po, 4 h, 30 mg/kg per os, female rats, read-out: % inhibition of the edema after 4 hours): 21%; inhibition in vivo at 30 mg/kg (phenylquinone writhes; Mus musculus, 30 mg/kg oral, 2 h before phenylquinone, 5-15 min, female mice): 33%; Average number of lesions per animal (rats [4]; 5 mg/kg): 0; Average number of lesions per animal (rats [4]; 7.5 mg/kg): 0.9; Gastric ulcerogenicity (in words) (rats [4]; rats): considerable gastrolesive power; Reduction of the pyresis at hour 4 (pyresis; 30 mg/g (so in the source) per os): 1.12 °C |
